One series deals with T1, SdaC (Escherichia coli, UniProt P0AAD6).
T1 construct: full-length native chromosomal sdaC, no tag; whole-cell uptake in strain lacking the other carriers, compared with its sdaC deletion B2429
In words: radiolabelled uptake by whole cells, sdaC+ versus sdaC deletion. The settings on record: M9 medium, 0.2% glucose, 37 °C; 100 μM L-serine; strain B2394 versus B2429; labelled compound (14C). Format: cell-based.

Substrate in series [1]: C[C@@H](O)[C@H](N)C(=O)O
In words: radiolabelled uptake by whole cells, initial velocity, Lineweaver-Burk. Format: cell-based, Escherichia coli. The settings on record: M9 medium, 0.2% glucose, 37 °C, strain B2394[pMW-liv] overexpressing LIV-I, labelled compound (14C).

T1 sequence (P0AAD6 whole entry): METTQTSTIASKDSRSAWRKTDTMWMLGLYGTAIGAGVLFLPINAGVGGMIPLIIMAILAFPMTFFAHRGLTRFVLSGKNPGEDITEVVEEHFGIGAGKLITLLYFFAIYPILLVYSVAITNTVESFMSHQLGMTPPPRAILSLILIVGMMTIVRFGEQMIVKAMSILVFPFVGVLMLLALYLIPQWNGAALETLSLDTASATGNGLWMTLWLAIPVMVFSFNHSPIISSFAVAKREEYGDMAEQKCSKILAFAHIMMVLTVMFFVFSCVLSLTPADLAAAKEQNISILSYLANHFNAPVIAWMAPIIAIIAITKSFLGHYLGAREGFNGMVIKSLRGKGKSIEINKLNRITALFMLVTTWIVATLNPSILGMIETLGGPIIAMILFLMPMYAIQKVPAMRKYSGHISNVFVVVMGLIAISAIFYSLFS

In the case of `N[C@@H](CO)C(=O)O` [L-serine], at SdaC, the “radiolabelled uptake by whole cells, sdaC+ versus sdaC deletion” value is listed as “serine transport activity of the B2394 strain possessing SdaC as the sole transporter”.

B1: LIV-I branched chain amino acid transport system (Escherichia coli K-12) (protein)
chain: EDIKVAVVGAMSGPVAQYGDQEFTGAEQAVADINAKGGIKGNKLQIVKYDDACDPKQAVAVANKVVNDGIKYVIGHLCSSSTQPASDIYEDEGILMITPAATAPELTARGYQLILRTTGLDSDQGPTAAKYILEKVKPQRIAIVHDKQQYGEGLARAVQDGLKKGNANVVFFDGITAGEKDFSTLVARLKKENIDFVYYGGYHPEMGQILRQARAAGLKTQFMGPEGVANVSLSNIAGESAEGLLVTKPKNYDQVPANKPIVDAIKAKKQDPSGAFVWTTYAALQSLQAGLNQSDDPAEIAKYLKANSVDTVMGPLTWDEKGDLKGFEFGVFDWHANGTATDAK
notes: whole-cell uptake, ABC transporter
In the case of B1, in series [1], the Km stood at 13.0 ± 0.9 µM.

These data come from article PMC10070963 (Frontiers in Microbiology, 2023).
